Data as given in US7622469B2, “2,4-diamino-1,3,5-triazine derivatives” (Hamari Chemicals, Ltd., priority 2002, dated 2009).
Converted amounts (≈) assume the structure as drawn.

Key:
Assay in all cases: Antibacterial activity test (MIC)
Conditions in all cases: Mueller-Hinton Broth, 37° C., 20 to 24 hours
MRSA 97-115 = assay type: cell-based, methicillin-resistant Staphylococcus aureus
Experimental: (§1) Regarding compounds obtained in respective Working Examples, in order to investigate antibacterial activity, minimal inhibitory concentration (MIC) was determined according to a standard method of Japanese Society of Chemotherapy.
(§2) As a test bacterium, nine kinds of S. aureus 209PJC, MRSA 97-115, MRSA KM 97-53, MRSA KM97-108, VRE 49, E. coli NIHJ JC-2, P. aeruginosa PAO-1, P. aeruginosa No. 12, P. aeruginosa KM97-5 were used and, as a medium, Mueller-Hinton Broth (DIFCO) was used. One platinum loop of a test bacterium was inoculated into 20 ml of a medium, and static culture was carried out at 37° C. for 16 to 20 hours, and then each bacterium species was diluted with a sterilized physiological saline to 10^5/ml, which was used as a test bacterium solution.
(§3) Then, each compound was dissolved in methanol, subjected to ½ stepwise dilution with a medium to prepare a medium for measuring sensitivity, and each 2 ml was dispensed into a test tube. A compound concentration in a medium was adjusted to 100 μg/ml and its 2^n-fold (n=−10 to 1).
(§4) Numerical values in Tables represent MIC expressed in μg/ml unit.

S. aureus 209PJC = assay type: cell-based
Experimental: as §1, §2, §3, §4

P. aeruginosa PAO-1 = assay type: cell-based
Experimental: as §1, §2, §3, §4

E. coli NIHJ JC-2 = assay type: cell-based
Experimental: as §1, §2, §3, §4

Row | Compound | minimal inhibitory concentration (MIC) (MRSA 97-115) | minimal inhibitory concentration (MIC) (S. aureus 209PJC) | minimal inhibitory concentration (MIC) (P. aeruginosa PAO-1) | minimal inhibitory concentration (MIC) (E. coli NIHJ JC-2)
1 | CCCCCCCCCCCCC1N=C(N)N=C(N)N1CCc1ccc(OC)cc1.Cl (racemic) [15(2)] | 1.6 µg/mL | 0.4 µg/mL | 50 µg/mL | 50 µg/mL
2 | CCCCCCCCCCCCC1N=C(N)NC(NCc2ccc(OC)cc2)=N1.Cl (racemic) [16(1)] | 1.6 µg/mL | 0.4 µg/mL | 50 µg/mL | 25 µg/mL
3 | CCCCCCCCCCCCC1N=C(N)N=C(N)N1Cc1ccc(OC)cc1.Cl (racemic) [16(2)] | 1.6 µg/mL | 0.4 µg/mL | 25 µg/mL | 25 µg/mL
4 | CCCCCCCCCCC1N=C(N)NC(NCc2ccc(C(F)(F)F)cc2)=N1.Cl (racemic) [18(1)] | 0.8 µg/mL | 0.4 µg/mL | 25 µg/mL | 6.3 µg/mL
5 | CCCCCCCCCCC1N=C(N)N=C(N)N1Cc1ccc(C(F)(F)F)cc1.Cl (racemic) [18(2)] | 1.6 µg/mL | 0.8 µg/mL | 12.5 µg/mL | 6.3 µg/mL
6 | CCCCCCCCCCCC1N=C(N)N=C(N)N1c1ccc(F)cc1F.Cl (racemic) [compound 35] | 3.1 µg/mL | 0.8 µg/mL | 25 µg/mL | 25 µg/mL
7 | CCCCCCCCCCCC1N=C(N)NC(Nc2ccc(F)cc2F)=N1.Cl (racemic) [compound 36] | 1.6 µg/mL | 0.8 µg/mL | >100 µg/mL | >100 µg/mL
8 | CCCCCCCCCCCCC1N=C(N)NC(NCc2ccccc2)=N1.Cl (racemic) [compound 44] | 0.8 µg/mL | 0.2 µg/mL | 12.5 µg/mL | 1.6 µg/mL
9 | CCCCCCCCCCCC1(C)N=C(N)N=C(N)N1c1ccc(Cl)cc1.Cl (racemic) [compound 45] | 0.4 µg/mL | 0.4 µg/mL | >100 µg/mL | >100 µg/mL
10 | CCCCCCCCCCCC1(C)N=C(N)NC(NCc2ccccc2)=N1.Cl (racemic) [compound 46] | 0.4 µg/mL | 0.4 µg/mL | 25 µg/mL | 12.5 µg/mL
11 | CCCCCCCCNC1=NC(C)(C)N=C(NCc2ccc(Cl)c(Cl)c2)N1.Cl [12(1)] | 0.8 µg/mL | 0.4 µg/mL | 25 µg/mL | 25 µg/mL
12 | CCCCCCCCNC1=NC(C)(C)N(Cc2ccc(Cl)c(Cl)c2)C(N)=N1.Cl [12(2)] | 1.6 µg/mL | 0.8 µg/mL | 50 µg/mL | 50 µg/mL
13 | CCCCCCCCCCNC1=NC(C)(C)N=C(NCc2ccccc2)N1.O=C(O)CC(=O)O [41(2)] | 0.8 µg/mL | 0.4 µg/mL | 12.5 µg/mL | 6.3 µg/mL
14 | CCCCCCCCCCNC1=NC(C)(C)N=C(NCc2ccc(OC)cc2)N1.Cl [Example 1] | 0.4 µg/mL | 0.4 µg/mL | 25 µg/mL | 12.5 µg/mL
15 | CCCCCCCCCCNC1=NC(C)(C)N=C(NCc2ccc(OC)c(OC)c2)N1.Cl [compound 3] | 1.6 µg/mL | 1.6 µg/mL | – | 25 µg/mL
16 | CCCCCCCCCNC1=NC(C)(C)N=C(NCCc2ccc(OC)cc2)N1.Cl [compound 5] | 0.9 µg/mL | 0.5 µg/mL | – | –
17 | CCCCCCCCCCCNC1=NC(C)(C)N=C(NCCc2ccc(OC)cc2)N1.Cl [compound 6] | 1.8 µg/mL | 0.9 µg/mL | 114 µg/mL | 57 µg/mL
18 | CCCCCCCCCCNC1=NC(C)(C)N=C(NCc2ccc(O)cc2)N1.Cl [compound 7] | 0.8 µg/mL | 0.2 µg/mL | 50 µg/mL | 12.5 µg/mL
19 | CCCCCCCCNC1=NC(C)(C)N=C(NCc2ccc(O)cc2)N1.Cl [compound 8] | 3.1 µg/mL | 0.4 µg/mL | >100 µg/mL | 25 µg/mL
20 | CCCCCCCCCCCNC1=NC(C)(C)N=C(NCc2ccc(O)cc2)N1.Cl [compound 9] | 1.6 µg/mL | 0.4 µg/mL | >100 µg/mL | 100 µg/mL
21 | CCCCCCCCCCNC1=NCN=C(NCCc2ccc(OC)cc2)N1.Cl [compound 10] | 6.4 µg/mL | 0.4 µg/mL | 26 µg/mL | –
22 | CCCCCCCCCCNC1=NC(C)(C)N(c2ccc(OC)cc2)C(N)=N1.Cl [compound 14] | 3.1 µg/mL | 3.1 µg/mL | 100 µg/mL | 50 µg/mL
23 | CCCCCCCCC1N=C(N)NC(NCc2ccc(C(F)(F)F)cc2)=N1.Cl (stereo not shown) [compound 17] | 1.6 µg/mL | 0.8 µg/mL | 25 µg/mL | 12.5 µg/mL
24 | CCCCCCCCCCCC1N=C(N)NC(NCc2ccc(C(F)(F)F)cc2)=N1.Cl (stereo not shown) [compound 19] | 3.1 µg/mL | 0.4 µg/mL | 100 µg/mL | 50 µg/mL
25 | CCCCCCCC1N=C(N)N=C(N)N1c1ccc(C(C)(C)C)cc1.Cl (stereo not shown) [compound 20] | 3.1 µg/mL | 3.1 µg/mL | 50 µg/mL | 50 µg/mL
26 | CCCCCCCCC1N=C(N)N=C(N)N1c1ccc(C(C)(C)C)cc1.Cl (stereo not shown) [compound 21] | 3.1 µg/mL | 1.5 µg/mL | 50 µg/mL | 25 µg/mL
27 | CCCCCCCCCC1N=C(N)NC(Nc2ccc(C(C)(C)C)cc2)=N1.Cl (stereo not shown) [compound 23] | 1.6 µg/mL | 0.8 µg/mL | >100 µg/mL | >100 µg/mL
28 | CCCCCCCCC1N=C(N)NC(Nc2cc(C(C)(C)C)ccc2OC)=N1 (stereo not shown) [compound 25] | 1.6 µg/mL (≈ 4.13 µM) | 1.6 µg/mL (≈ 4.13 µM) | – | –
29 | CC(=O)O.CCCCCCCCCCNC1=NC(C)(C)N=C(NCc2ccccc2)N1 [compound 50] | 0.4 µg/mL | 0.4 µg/mL | 25 µg/mL | –
